What all share (type): biochemical, Alternaria brassicicola
Test [1] relates to T1, AbGSTFuA1.
T1 construct: E. coli BL21(DE3) pRARE
Description: GSH transferase, absorbance […] nm. Conditions: 3 mM GSH (table note; methods say 5 mM), pH 6.5.

The test system of test [2] is T1, AbGSTFuA1. Kind of test: GSH transferase, absorbance […] nm. To be noted: 3 mM GSH (table note; methods say 5 mM), phosphate pH 7.5.
Test [3] concerns T2, AbUre2pB1.
T2 construct: E. coli BL21(DE3) pRARE
Kind of test: GSH transferase, absorbance […] nm. Conditions: 3 mM GSH (table note; methods say 5 mM), phosphate pH 7.5.

The test system of test [4] is T3, AbGTT1.2.
T3 construct: E. coli BL21(DE3) pRARE
Description: GSH transferase, absorbance […] nm. To be noted: 3 mM GSH (table note; methods say 5 mM), phosphate pH 7.5.

Test [5] has as its system T3, AbGTT1.2. Kind of test: peroxidase, glutathione reductase/NADPH coupled, […] nm. Conditions: 3 mM GSH (table note; methods say 2 mM), Tris-HCl pH 8.0.
The subject of test [6] is T2, AbUre2pB1. The test is described as above. To be noted: 3 mM GSH (table note; methods say 2 mM), Tris-HCl pH 8.0.

In general, Km refers to the substrate concentration at which the rate is half of its maximum. `C=CCN=C=S` [Al-ITC]: in the test on AbGSTFuA1 [1], the Km stood at 120 ± 20 µM.
Turning to `S=C=NCc1ccccc1` [Bz-ITC], in the test on AbGSTFuA1 [1], the Km came to 180 ± 30 µM.
Take `O=[N+]([O-])c1ccc(Cl)c([N+](=O)[O-])c1` [CDNB, 1-chloro-2,4-dinitrobenzene]: the Michaelis constant (Km) in the test with AbGSTFuA1 [2] came to 400 ± 20 µM; with AbUre2pB1 [3] it was 5010 ± 400 µM; in the test with AbGTT1.2 [4], 1820 ± 330 µM.
As for `CC(C)(OO)c1ccccc1` [Cu-OOH], the Km in the test on AbGTT1.2 [5] was 120 ± 40 µM; with AbUre2pB1 [6], 770 ± 60 µM.
Consider `S=C=NCCc1ccccc1` [Ph-ITC], for which the Km in the test on AbGSTFuA1 [1] came to 110 ± 20 µM.

The values above are taken from publication PMC4470081, “Characterization of glutathione transferases involved in the pathogenicity of Alternaria brassicicola” (BMC Microbiology, 2015).
